The record followed here is patent US7267975B2, “Methods and compositions relating to insect repellents from a novel endophytic fungus” (Montana State University, priority 2002, dated 2007).

Molecules are shown by their SMILES.

This assay deals with adult wheat stem sawflies (C. cinctus). The assay is described as follows: Y-tube olfactometry insect repellency test. The format is in vivo. The following applies: for Ratio: preference of insect to non-naphthalene side (control) of Y-tube vs. naphthalene source side of tube: control acetone on paper disk, 30 insects. As for the experimental part:
FIG. 1. A highly schematic drawing of the olfactory Y-tube used to measure insect behavior in the presence of various naphthalene sources. A 6.3 volt light source is placed at the base of the Y-tube as illustrated in the drawing.
In controlled, replicated experiments, both authentic naphthalene as well as M. vitigenus, were used as odor sources in Y-tube olfactometry tests (FIG. 1). […] Thirty successful trials using naphthalene test solution A (with a naphthalene release rate of 12 ng hr^−1) were completed (Table 1). Out of 30 insects, 24 responded by moving away from the naphthalene source. A second set of 30 successful trials were completed using naphthalene test solution B. Out of 30 insects, 21 were repelled by the naphthalene source. Finally, sixty successful trials were preformed using 0.0785 cm^2 fungal plugs (2-3 weeks old) of M. vitigenus as the odor source. Out of the 60 insects, 49 traveled away from the fungus and its volatiles. The results of both test concentrations of authentic naphthalene were statistically different from the acetone control test papers (Table 1). Insect behaviour in tests involving agar plugs containing M. vitigenus was also statistically different (a=0.001) from the controls (Table 1). […] Table 1. Influence of authentic naphthalene and M. vitigenus volatiles, containing mostly naphthalene, on the behavior of adult wheat stem sawflies (C. cinctus). Bioassay tests were conducted in Y-olfactory tubes.

Take `c1ccc2ccccc2c1` [Authentic naphthalene, naphthalene]: under “many of the insects tested, Y-tube”, the “Insect behaviour (orientation) in the presence of the odor source” value is on record as “more disoriented than usual”. The “Number of insects moving away from the naphthalene source” value (out of 30 insects, naphthalene test solution A (release rate 12 ng hr^-1)) is 24. In addition, the “Number of insects repelled by the naphthalene source” value (out of 30 insects, naphthalene test solution B) is given as 21. The “Ratio: preference of insect to non-naphthalene side (control) of Y-tube vs. naphthalene source side of tube” value reads like this: (test concentration (A), naphthalene release rate 12 ng hr^-1) 24/6; (test concentration (B)) 21/9.
